Assays:
FGFR2 (h) = FGFR2 (h) (Homo sapiens, UniProt P21802); assay: FGFR2 (enzymatic assay), TR-FRET; format: biochemical; conditions: enzymatic assay; read-out: FGFR 2 pIC50 (converted)
Outline: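 Kinase reaction in 50 mM HEPES pH 7.5 with 6 mM MnCl2, 1 mM DTT, 0.1 mM Na3VO4 and 0.01% Triton-X-100 contained FGFR2 (h) at 150 ng/ml. Biotinylated Flt3 peptide (500 nM) served as substrate with 0.4 μM ATP, compound added in 1% DMSO final.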

KDR (h) = KDR (h) (Homo sapiens, UniProt P35968); assay: KDR (VEGFR2) (enzymatic assay), TR-FRET; format: biochemical; conditions: read-out: VEGFR 2 (KDR) pIC50 (converted)
Sequence of KDR (h) (P35968 20-1356): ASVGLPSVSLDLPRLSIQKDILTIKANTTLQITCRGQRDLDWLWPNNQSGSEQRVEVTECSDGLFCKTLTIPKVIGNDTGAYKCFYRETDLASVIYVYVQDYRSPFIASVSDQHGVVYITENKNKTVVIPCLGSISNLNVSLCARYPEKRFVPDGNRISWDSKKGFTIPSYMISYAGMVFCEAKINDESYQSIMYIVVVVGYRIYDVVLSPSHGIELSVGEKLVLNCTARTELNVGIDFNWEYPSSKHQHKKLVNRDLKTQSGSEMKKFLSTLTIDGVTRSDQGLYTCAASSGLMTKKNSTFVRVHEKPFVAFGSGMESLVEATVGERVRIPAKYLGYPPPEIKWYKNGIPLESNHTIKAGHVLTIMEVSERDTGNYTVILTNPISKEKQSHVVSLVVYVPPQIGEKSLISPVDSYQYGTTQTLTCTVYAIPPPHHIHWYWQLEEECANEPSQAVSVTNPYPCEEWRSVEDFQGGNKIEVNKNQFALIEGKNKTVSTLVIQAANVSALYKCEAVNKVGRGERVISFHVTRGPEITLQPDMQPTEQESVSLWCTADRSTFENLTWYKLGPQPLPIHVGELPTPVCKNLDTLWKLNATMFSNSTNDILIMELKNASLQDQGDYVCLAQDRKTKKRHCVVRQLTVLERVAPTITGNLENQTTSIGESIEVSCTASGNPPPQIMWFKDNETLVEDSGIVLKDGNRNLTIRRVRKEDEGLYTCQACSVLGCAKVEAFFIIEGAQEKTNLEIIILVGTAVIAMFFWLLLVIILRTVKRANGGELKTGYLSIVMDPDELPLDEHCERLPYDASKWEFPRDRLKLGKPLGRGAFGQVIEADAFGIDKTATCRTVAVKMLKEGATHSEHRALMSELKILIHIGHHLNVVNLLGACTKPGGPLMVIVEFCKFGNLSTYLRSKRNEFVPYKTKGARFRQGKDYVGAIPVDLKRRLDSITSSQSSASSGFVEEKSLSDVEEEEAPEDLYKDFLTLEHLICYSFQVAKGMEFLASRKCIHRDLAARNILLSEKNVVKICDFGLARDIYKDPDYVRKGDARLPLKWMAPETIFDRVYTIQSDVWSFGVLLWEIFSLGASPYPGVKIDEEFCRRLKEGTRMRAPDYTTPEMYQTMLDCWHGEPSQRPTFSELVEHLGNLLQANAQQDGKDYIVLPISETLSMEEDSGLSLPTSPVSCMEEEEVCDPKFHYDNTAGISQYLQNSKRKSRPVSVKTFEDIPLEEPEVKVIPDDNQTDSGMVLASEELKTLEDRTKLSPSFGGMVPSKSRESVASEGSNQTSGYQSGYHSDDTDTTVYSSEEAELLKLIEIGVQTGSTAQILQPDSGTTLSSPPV
Outline: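 First, kinase (150 ng/ml), Btn-Flt3 (500 nM), ATP (3 μM) and compound (1% DMSO) react 120 min at RT in pH 7.5 HEPES/6 mM MnCl2. Next, EDTA with Eu-anti-P-Tyr and SA-XL-665 stops it for 60 min. Finally, TR-FRET is read as RFU.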

[1] = system: Ba/F3-FGFR1-transfected cells; assay: Ba/F3-FGFR1 (plus IL3) cellular proliferation assay, counterscreen with 10 ng/ml murine IL3; format: cell-based; conditions: plus IL3 (10 ng/ml murine IL3, counterscreen); read-out: BAF3-FGFR1 (PLUS IL3) pIC50 (converted)
Outline: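 Ba/F3-FGFR1 cells (20000/well) in RPMI-1640 with 10% FBS exposed to compound for 24 h at 37° C., 5% CO2, then Alamar Blue (resazurin) added for 4 h; fluorescence read at ex 540/em 590 nm. Counterscreen run identically with 10 ng/ml murine IL3.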

Sequence of FGFR2 (h) (P21802 22-821): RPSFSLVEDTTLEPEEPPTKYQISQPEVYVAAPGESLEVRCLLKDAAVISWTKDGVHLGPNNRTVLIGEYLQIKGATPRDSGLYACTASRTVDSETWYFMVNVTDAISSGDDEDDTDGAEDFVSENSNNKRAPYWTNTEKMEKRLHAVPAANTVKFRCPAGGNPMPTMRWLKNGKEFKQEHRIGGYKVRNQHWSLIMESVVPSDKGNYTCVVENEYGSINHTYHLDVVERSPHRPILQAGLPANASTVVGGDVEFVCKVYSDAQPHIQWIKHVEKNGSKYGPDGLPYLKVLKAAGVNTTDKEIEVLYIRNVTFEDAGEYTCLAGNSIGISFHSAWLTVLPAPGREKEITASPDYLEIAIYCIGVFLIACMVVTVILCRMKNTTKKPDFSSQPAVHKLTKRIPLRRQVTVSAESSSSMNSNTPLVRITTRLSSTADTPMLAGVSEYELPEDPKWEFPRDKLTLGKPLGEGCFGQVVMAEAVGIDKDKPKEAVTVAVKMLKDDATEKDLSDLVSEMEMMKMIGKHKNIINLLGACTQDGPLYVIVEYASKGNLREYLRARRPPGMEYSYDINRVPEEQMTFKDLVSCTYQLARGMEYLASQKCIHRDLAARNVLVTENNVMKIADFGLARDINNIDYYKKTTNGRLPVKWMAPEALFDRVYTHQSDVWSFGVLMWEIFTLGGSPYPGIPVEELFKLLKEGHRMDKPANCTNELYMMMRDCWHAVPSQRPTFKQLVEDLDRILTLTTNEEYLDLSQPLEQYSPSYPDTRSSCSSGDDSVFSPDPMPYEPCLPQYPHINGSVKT

With COc1cc(OC)c(F)c(N(CCNC2COC2)c2ccc3ncc(-c4cnn(C)c4)nc3n2)c1F (single isomer, unassigned) [Compound 162] the IC50 (FGFR2 (h)) was 2.19 nM, the IC50 (KDR (h)) was 8.91 nM and the IC50 [1] was > 10000 nM. For the same compound, the melting point was 183 °C.
With COc1cc(/N=c2\ccc3ncc(-c4cnn(C)c4)nc3n2CC2CCOC2)c(F)c(OC)c1 (single isomer, unassigned) [Compound 169] the IC50 (FGFR2 (h)) was 1.62 nM, the IC50 (KDR (h)) was 4.27 nM and the IC50 [1] was > 10000 nM. For the same compound, the melting point was 80 °C.
For COc1cc(/N=c2\ccc3ncc(-c4cnn(CC(C)(C)O)c4)nc3n2CC(C)(C)O)c(F)c(OC)c1 (single isomer, unassigned) [Compound 207], the IC50 (FGFR2 (h)) was 2.51 nM, the IC50 (KDR (h)) was 8.32 nM and the IC50 [1] was > 10000 nM. It also gave a melting point of 154 °C.
For COc1cc(OC)c(F)c(N(CC2CCC(=O)N2CCO)c2ccc3ncc(-c4cnn(C)c4)nc3n2)c1 (single isomer, unassigned) [Compound 218], the IC50 (FGFR2 (h)) was 5.5 nM, the IC50 (KDR (h)) was 42.7 nM and the IC50 [1] was > 10000 nM. The melting point was 130 °C.
With COc1cc(OC)c(F)c(/N=c2\ccc3ncc(-c4cnn(C)c4)nc3n2CC2CCOC2)c1F (stereo not drawn) [Compound 154] the IC50 (FGFR2 (h)) was 1.05 nM, the IC50 (KDR (h)) was 1.62 nM and the IC50 [1] was > 10000 nM. For the same compound, the melting point was 226 °C.
With COc1cc(OC)c(F)c(/N=c2\ccc3ncc(-c4cnn(C)c4)nc3n2CCN(C2COC2)C2COC2)c1F [Compound 164] the IC50 (FGFR2 (h)) was 1.82 nM, the IC50 (KDR (h)) was 3.39 nM and the IC50 [1] was > 10000 nM. For the same compound, the melting point was 218 °C.
In the case of COc1cc(OC)c(F)c(N(CC#N)c2ccc3ncc(-c4cnn(C)c4)nc3n2)c1F [Compound 173], the IC50 (FGFR2 (h)) was 1.1 nM, the IC50 (KDR (h)) was 8.91 nM and the IC50 [1] was > 10000 nM. For the same compound, the melting point was 250 °C.
In the case of COc1cc(OC)cc(N(Cc2noc(C)n2)c2ccc3ncc(-c4cnn(C)c4)nc3n2)c1 [Compound 186], the IC50 (FGFR2 (h)) was 2.57 nM, the IC50 (KDR (h)) was 45.7 nM and the IC50 [1] was > 10000 nM. For the same compound, the melting point was 177 °C.
In the case of COc1cc(OC)cc(N(Cc2nnc(N)o2)c2ccc3ncc(-c4cnn(C)c4)nc3n2)c1 [Compound 188], the IC50 (FGFR2 (h)) was 1.35 nM, the IC50 (KDR (h)) was 33.9 nM and the IC50 [1] was > 10000 nM. The melting point was 246 °C.
With COc1cc(OC)c(F)c(N(CC2CCC(=O)N2CCO)c2ccc3ncc(-c4cnn(C)c4)nc3n2)c1 (stereo not drawn) [Compound 194] the IC50 (FGFR2 (h)) was 12 nM, the IC50 (KDR (h)) was 126 nM and the IC50 [1] was > 10000 nM. It also gave a melting point of 102 °C.
With COc1cc(OC)c(F)c(N(Cc2ncc[nH]2)c2ccc3ncc(-c4cnn(C(CO)CCl)c4)nc3n2)c1 (stereo not drawn) [Compound 209] the IC50 (FGFR2 (h)) was 2.4 nM, the IC50 (KDR (h)) was 7.59 nM and the IC50 [1] was > 10000 nM.
For COc1cc(OC)c(F)c(N(Cc2ncc[nH]2)c2ccc3ncc(-c4ccncc4)nc3n2)c1 [Compound 211], the IC50 (FGFR2 (h)) was ~2.34 nM, the IC50 (KDR (h)) was 36.3 nM and the IC50 [1] was > 10000 nM.
With COc1cc(OC)cc(N(CCO)c2ccc3ncc(-c4ccncc4)nc3n2)c1 [Compound 213] the IC50 (FGFR2 (h)) was 5.62 nM, the IC50 (KDR (h)) was 245 nM and the IC50 [1] was > 10000 nM.
For COC(=O)CN(c1ccc2ncc(-c3cnn(C)c3)nc2n1)c1cc(OC)cc(OC)c1F [Compound 214], the IC50 (FGFR2 (h)) was 2.57 nM, the IC50 (KDR (h)) was 145 nM and the IC50 [1] was > 10000 nM.
With COc1cc(OC)c(F)c(N(Cc2ncc[nH]2)c2ccc3ncc(N4CCOCC4)nc3n2)c1F [Compound 215] the IC50 (FGFR2 (h)) was 2.09 nM, the IC50 (KDR (h)) was 52.5 nM and the IC50 [1] was > 10000 nM.
In the case of COc1cc(OC)cc(N(Cc2nnco2)c2ccc3ncc(-c4cnn(C)c4)nc3n2)c1 [Compound 217], the IC50 (FGFR2 (h)) was 5.89 nM, the IC50 (KDR (h)) was 162 nM and the IC50 [1] was > 10000 nM. It also gave a melting point of 240 °C.
For COc1cc(OC)c(F)c(N(Cc2nc(OC)cc(OC)n2)c2ccc3ncc(-c4cnn(C)c4)nc3n2)c1 [Compound 220], the IC50 (FGFR2 (h)) was 6.92 nM, the IC50 (KDR (h)) was 50.1 nM and the IC50 [1] was > 10000 nM.
With COc1cc(OC)c(F)c(N(CCNC2COC2)c2ccc3ncc(-c4cnn(C)c4)nc3n2)c1 [Compound 221] the IC50 (FGFR2 (h)) was 3.09 nM, the IC50 (KDR (h)) was ~29.5 nM and the IC50 [1] was > 10000 nM.
For COc1cc(OC)c(F)c(N(CCN(C2COC2)C2COC2)c2ccc3ncc(-c4cnn(C)c4)nc3n2)c1 [Compound 222], the IC50 (FGFR2 (h)) was 5.25 nM, the IC50 (KDR (h)) was 40.7 nM and the IC50 [1] was > 10000 nM.
With CCn1cc(-c2cnc3ccc(N(Cc4ncc[nH]4)c4cc(OC)cc(OC)c4F)nc3n2)cn1 [Compound 223] the IC50 (FGFR2 (h)) was 1.58 nM, the IC50 (KDR (h)) was 7.08 nM and the IC50 [1] was > 10000 nM.
In the case of COc1cc(OC)c(F)c(N(CC(=O)c2cnn(C)c2)c2ccc3ncc(-c4cnn(C)c4)nc3n2)c1 [Compound 225], the IC50 (FGFR2 (h)) was ~7.08 nM, the IC50 (KDR (h)) was 200 nM and the IC50 [1] was > 10000 nM.
For COc1cc(OC)cc(N(Cc2ncc[nH]2)c2ccc3ncc(-c4cnn(C5CCNCC5)c4)nc3n2)c1 [Compound 227], the IC50 (FGFR2 (h)) was 1.45 nM, the IC50 (KDR (h)) was 12 nM and the IC50 [1] was > 10000 nM.
For COc1cc(OC)cc(N(Cc2n[nH]c(=O)o2)c2ccc3ncc(-c4cnn(C)c4)nc3n2)c1 [Compound 229], the IC50 (FGFR2 (h)) was 5.62 nM, the IC50 (KDR (h)) was 182 nM and the IC50 [1] was > 10000 nM. For the same compound, the melting point was 232 °C.
In the case of COc1cc(OC)c(F)c(N(CC(=O)NCCO)c2ccc3ncc(-c4cnn(C)c4)nc3n2)c1 [Compound 230], the IC50 (FGFR2 (h)) was 7.41 nM, the IC50 (KDR (h)) was 363 nM and the IC50 [1] was > 10000 nM. It also gave a melting point of 258 °C.
With COc1cc(OC)c(F)c(N(CC(=O)O)c2ccc3ncc(-c4cnn(C)c4)nc3n2)c1 [Compound 231] the IC50 (FGFR2 (h)) was 6.31 nM, the IC50 (KDR (h)) was 200 nM and the IC50 [1] was > 10000 nM. For the same compound, the melting point was > 260 °C.
In the case of COc1cc(OC)c(F)c(N(Cc2nc(CO)c[nH]2)c2ccc3ncc(-c4cnn(C)c4)nc3n2)c1 [Compound 232], the IC50 (FGFR2 (h)) was ~2.75 nM, the IC50 (KDR (h)) was 22.4 nM and the IC50 [1] was > 10000 nM.
In the case of COc1cc(OC)c(F)c(N(CCO)c2ccc3ncc(-c4cnn(CCO)c4)nc3n2)c1 [Compound 233], the IC50 (FGFR2 (h)) was 1.7 nM, the IC50 (KDR (h)) was 25.7 nM and the IC50 [1] was > 10000 nM. It also gave a melting point of 194 °C.
For COc1cc(OC)c(F)c(N(Cc2nc(Br)c[nH]2)c2ccc3ncc(-c4cnn(C)c4)nc3n2)c1 [Compound 238], the IC50 (FGFR2 (h)) was 2.14 nM, the IC50 (KDR (h)) was 11.2 nM and the IC50 [1] was > 10000 nM.
For COc1cc(OC)c(F)c(N(Cc2ncc[nH]2)c2ccc3ncc(-c4cnn(CC(C)(C)O)c4)nc3n2)c1 [Compound 240], the IC50 (FGFR2 (h)) was 2.57 nM, the IC50 (KDR (h)) was 15.5 nM and the IC50 [1] was > 10000 nM.
In the case of COc1cc(OC)c(F)c(N(CCNC(C)=O)c2ccc3ncc(-c4cnn(C)c4)nc3n2)c1 [Compound 242], the IC50 (FGFR2 (h)) was 2.95 nM, the IC50 (KDR (h)) was 28.2 nM and the IC50 [1] was > 10000 nM.
For COc1cc(/N=c2\ccc3ncc(-c4cnn(C)c4)nc3n2CC2CCC(=O)N2)cc(OC)c1 (stereo not drawn) [Compound 248], the IC50 (FGFR2 (h)) was 3.63 nM, the IC50 (KDR (h)) was 20 nM and the IC50 [1] was > 10000 nM.
In the case of COc1cc(OC)c(F)c(N(Cc2n[nH]c(=O)o2)c2ccc3ncc(-c4cnn(C)c4)nc3n2)c1 [Compound 284], the IC50 (FGFR2 (h)) was 2.14 nM, the IC50 (KDR (h)) was 63.1 nM and the IC50 [1] was > 10000 nM.
